Columns and labels:
EGFR mutant cell lines = assay: Cellular assays comparing EGFR mutant with EGFR wild type cell lines (proliferation); assay type: cell-based; conditions: EGFR mutant vs EGFR wild type cell lines
Excerpt: (§1) Compound 1 is a small molecule epidermal growth factor receptor (EGFR) mutant-specific inhibitor. […] Anti-tumor efficacy was independent of schedule (once daily versus twice daily administration) and was tolerated by the mice at clinically relevant exposure. Compound 1 is a novel, 3rd generation EGFR mutant-specific TKI, which is currently being investigated in first and second line setting for treatment of patients with EGFR-mutated NSCLC.

[1] = tested on: HCC827 (EGFRDelE746-A750)
Excerpt: as §1

H1975 (EGFRL858R/T790M) = assay: In vivo xenograft study, NSCLC model H1975; conditions: H1975 xenograft in mice; once daily or twice daily
Excerpt: as §1

mutant forms of EGFR = assay: Enzymatic inhibitory activity towards EGFR; assay type: biochemical
Excerpt: as §1

[2] = tested on: PC-9/GR/WR tumor xenografts; assay: PC-9/GR/WR xenograft studies (tumor volume); assay type: in vivo; conditions: SCID mice; HM61713 200 and 400 mg/kg oral gavage 5 days a week
Procedure: To establish the PC-9/GR/WR xenograft model, female severe combined immunodeficiency (SCID) mice (18-20 g, 6 weeks of age) were purchased from Charles River Laboratories. All experimental procedures were conducted following a protocol approved by the Institutional Animal Care and Use committee of Asan Institute for Life Sciences (2015-02-062). […] Combination with WZ4002: […] Combination with HM61713: […] Body weights were measured every 3-4 days. At the end of the combination experiment with WZ4002, tumors from each group were homogenized for lysate preparation and analyzed by Western Blotting.

[3] = tested on: T790M-containing cell lines; conditions: several preclinical models; cited from earlier work

Row | SMILES | inhibition of proliferation of mutated cell lines at lower concentration than for cells expressing wild type EGFR receptor (EGFR mutant cell lines) | anti-tumor activity as a single agent ([1]; HCC827 xenograft in mice, once daily or twice daily) | tolerability in mice ([1]; mouse, in vivo) | anti-tumor activity as a single agent (H1975 (EGFRL858R/T790M)) | blocking of the catalytic activity of EGFR mutants (mutant forms of EGFR; common EGFR mutants (L858R and exon 19 deletions) and certain uncommon EGFR mutants including T790M, covalent binding) | enzymatic inhibitory activity towards mutant forms of EGFR compared to wild type EGFR (mutant forms of EGFR; in vitro) | response of PC-9/GR/WR tumor xenografts to monotherapy [2] | inhibition of T790M-containing cell lines [3]
1 | C=CC(=O)Nc1cccc(Oc2nc(Nc3ccc(N4CCN(C)CC4)cc3)nc3ccsc23)c1 [compound 1, N-(3-{2-[4-(4-methyl-piperazin-1-yl)-phenylamino]-thieno[3,2-d]pyrimidin-4-yloxy}-phenyl)-acrylamide] | approximately 35 fold | Tumor regressions | tolerated | Tumor regressions | irreversibly blocks | more potent | Cross-resistance | –
2 | COc1cc2ncnc(Nc3ccc(F)c(Cl)c3)c2cc1NC(=O)/C=C/CN1CCCCC1 [dacomitinib] | – | – | – | – | – | – | – | effectively inhibit

From patent publication US20170088609A1, “ANTICANCER COMBINATION THERAPY” (priority 2015, published 2017)
